Data from patent US20240033234A1, “THERAPEUTIC COMPOUNDS, FORMULATIONS, AND USE THEREOF” (Tvardi Therapeutics, Inc., priority 2022, published 2024).

Assay: 3-Month stability data for TTI-101 Batches B, C, D and E stored at 40° C./75% RH
Type: physicochemical
Procedure: Exemplary HPLC conditions: diluent was 0.1% trifluoroacetic acid (TFA) in acetonitrile, Mobile Phase A was 0.05% TFA in water, and Mobile Phase B was 0.05% TFA in acetonitrile, column (Agilent, Eclipse XDB-C18, 3.0×100 mm, particle size 1.8 μm), flow (0.425 mL/min), and detector (280 nm diode array).
Batches B, C, and D were prepared according to Method 5, Method 4, and Method 3, respectively, as described in Example 1. Batch E was prepared analogously using according to Method 1 as described in Example 1.
Samples of TTI-101 (Batches B, C, D, and E) were stored at 40° C./75% RH for 3 months. The batches were individually stored in an low density polyethylene (LDPE) bag enclosed with a Nylon cable tie and then transferred to another LDPE bag and enclosed with a Nylon cable tie. The enclosure was put into a high density polyethylene (HDPE) bottle and closed with a polyethylene-lined polypropylene cap. For Batch B only, another sample was enclosed in a screw-top amber glass bottle and closed with a cap. The samples were stored under the above-identified conditions.

Impurity RRT 0.84, Area % (0 M): NQ (≥0.02% and <0.05%)
Impurity RRT 0.87, Area % (0 M): NQ (≥0.02% and <0.05%)
Impurity RRT 1.06 (Cmp 4), Area % (0 M): NQ (≥0.02% and <0.05%)
Impurities Total, Area % (0 M, listed as Batch C): 0.4 Area %
Impurity RRT 0.99, Area % (0 M, listed as Batch C): 0.06 Area %
Impurity RRT 1.16 (Cmp 6), Area % (0 M, listed as Batch C): 0.31 Area %
Impurities Total, Area % (0 M, listed as Batch D): 0.1 Area %
Impurity RRT 1.16 (Cmp 6), Area % (0 M, listed as Batch D): 0.10 Area %
Impurities Total, Area % (0 M, listed as Batch E): 0.1 Area %
Impurity RRT 1.16 (Cmp 6), Area % (0 M, listed as Batch E): 0.10 Area %
Impurities Total, Area % (1 M, listed as Batch C): 0.1 Area %
Impurity RRT 0.99, Area % (1 M, listed as Batch C): NQ (≥0.02% and <0.05%)
Impurity RRT 1.17 (Cmp 6), Area % (1 M, listed as Batch C): 0.12 Area %
Impurities Total, Area % (1 M, listed as Batch D): 0.1 Area %
Impurity RRT 1.17 (Cmp 6), Area % (1 M, listed as Batch D): 0.09 Area %
Impurities Total, Area % (1 M, listed as Batch E): 0.1 Area %
Impurity RRT 0.99, Area % (1 M, listed as Batch E): NQ (≥0.02% and <0.05%)
Impurity RRT 1.17 (Cmp 6), Area % (1 M, listed as Batch E): 0.09 Area %
Impurity RRT 0.99, Area % (2 M): NQ (≥0.02% and <0.05%)
Impurity RRT 1.06 (Cmp 4), Area % (2 M): NQ (≥0.02% and <0.05%)
Impurities Total, Area % (2 M, listed as Batch C): 0.1 Area %
Impurity RRT 1.17 (Cmp 6), Area % (2 M, listed as Batch C): 0.13 Area %
Impurities Total, Area % (2 M, listed as Batch D): 0.1 Area %
Impurity RRT 1.17 (Cmp 6), Area % (2 M, listed as Batch D): 0.09 Area %
Impurities Total, Area % (2 M, listed as Batch E): 0.1 Area %
Impurity RRT 1.17 (Cmp 6), Area % (2 M, listed as Batch E): 0.09 Area %
Impurity RRT 0.95, Area % (3 M): NQ (≥0.02% and <0.05%)
Impurity RRT 0.98, Area % (3 M): NQ (≥0.02% and <0.05%)
Impurity RRT 1.06 (Cmp 4), Area % (3 M): NQ (≥0.02% and <0.05%)
Impurities Total, Area % (3 M, listed as Batch C): 0.3 Area %
Impurity RRT 1.16 (Cmp 6), Area % (3 M, listed as Batch C): 0.31 Area %
Impurities Total, Area % (3 M, listed as Batch D): 0.1 Area %
Impurity RRT 1.16 (Cmp 6), Area % (3 M, listed as Batch D): 0.11 Area %
Impurities Total, Area % (3 M, listed as Batch E): 0.2 Area %
Impurity RRT 1.16 (Cmp 6), Area % (3 M, listed as Batch E): 0.16 Area %
Purity (%) (T = 0 month (0 M), listed as Batch C): 99.6%
Purity (%) (T = 0 month (0 M), listed as Batch D): 99.9%
Purity (%) (T = 0 month (0 M), listed as Batch E): 99.9%
Purity (%) (T = 1 month (1 M), listed as Batch C): 99.8%
Purity (%) (T = 1 month (1 M), listed as Batch D): 99.9%
Purity (%) (T = 1 month (1 M), listed as Batch E): 99.9%
Purity (%) (T = 2 months (2 M), listed as Batch C): 99.8%
Purity (%) (T = 2 months (2 M), listed as Batch D): 99.9%
Purity (%) (T = 2 months (2 M), listed as Batch E): 99.9%
Purity (%) (T = 3 months (3 M), listed as Batch C): 99.6%
Purity (%) (T = 3 months (3 M), listed as Batch D): 99.9%
Purity (%) (T = 3 months (3 M), listed as Batch E): 99.8%
SMILES: COc1ccc(S(=O)(=O)Nc2cc(-c3c(O)ccc4ccccc34)c(O)c3ccccc23)cc1 [TTI-101]
